{
  "source": "paper PMC7351617",
  "about": "(Journal of neurochemistry, 2020)",
  "system": "rat adrenal chromaffin cells (native α3β4* / α3β2β4 nAChRs)",
  "data": [
    {"smiles": "CC[C@H](C)[C@@H]1NC(=O)[C@@H]2CCCN2C(=O)[C@H](CO)NC(=O)[C@H](CCSC)NC(=O)[C@H](C)NC(=O)[C@H](CO)NC(=O)[C@@H]2CSSC[C@H](NC(=O)CN)C(=O)N[C@@H](CSSC[C@@H](C(N)=O)NC1=O)C(=O)N[C@@H](CO)C(=O)N[C@@H](Cc1c[nH]cn1)C(=O)N1CCC[C@H]1C(=O)N[C@@H](C(C)C)C(=O)N2", "note": "[TxID]", "values": [
      {"measurement": "Hill slope", "result": "−1.1"},
      {"measurement": "inhibition of the ACh-evoked currents", "result": "~ 97%"},
      {"measurement": "IC50", "setting": "36 h", "result": 7, "unit": "nM"},
      {"measurement": "ACh-evoked current amplitude in the presence of TxID", "setting": "SD", "result": "−50 ± 24", "unit": "pA"},
      {"measurement": "ACh-evoked current amplitude in the presence of TxID alone", "setting": "SD", "result": "−45 ± 26", "unit": "pA"},
      {"measurement": "ACh-evoked currents in the presence of TxID, % of controls", "setting": "SD", "result": "3 ± 1", "unit": "%"}
    ]}
  ]
}
